The record followed here is PubChem BioAssay (NCI).

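A five-concentration, 48-hour dose response in 96-well plates underlies each endpoint, interpolated linearly between surrounding concentrations. The concentration for 50% growth inhibition is given as GI50. Definition used: TGI = concentration required for complete inhibition of growth.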 A value given as a limit tells only on which side of the number the result lay.

Some test systems named below: SNB-19 CNS; SK-MEL-2 melanoma; A498 renal; EKVX NSCLC; HCC-2998 colon; HCT-15 colon; UACC-257 melanoma; MALME-3M melanoma; DU-145 prostate; MCF7 breast.
What all share (assay): DTP human tumour cell line panel, 48 h

Turning to `CC(C)CC(CNC(Cc1ccc(Cl)cc1)C(N)=O)NC(=O)C(Cc1cnc[nH]1)NC(=O)CNC(=O)C(NC(=O)C(C)NC(=O)C(Cc1c[nH]c2ccccc12)NC(=O)C(CCC(=O)O)NC(=O)C(N)Cc1ccccc1)C(C)C` (centres undefined), the TGI in the experiment with SNB-19 CNS, in the experiment on SK-MEL-2 melanoma, with A498 renal, in the experiment on EKVX NSCLC, with HCC-2998 colon and with HCT-15 colon was above 133 µM each time. In addition, the concentration for total growth inhibition (TGI) (commonly the concentration at which net growth stops) with UACC-257 melanoma is above 133 µM.
Regarding `O=C(O)c1ccc(N=Nc2cc(S(=O)(=O)O)c3cccnc3c2O)cc1`, the TGI in the experiment with SNB-19 CNS, in the experiment with MALME-3M melanoma, with SK-MEL-2 melanoma, in the experiment with A498 renal, in the experiment with EKVX NSCLC and with HCC-2998 colon was above 100 µM in each case. Also, the TGI in the experiment with HCT-15 colon and in the experiment on UACC-257 melanoma was above 100 µM each time.
Regarding `CC12CCc3ccccc3C1=Nc1ccccc12` (centres undefined), the TGI in the experiment on SNB-19 CNS, in the experiment on MALME-3M melanoma, with SK-MEL-2 melanoma, with DU-145 prostate, in the experiment with EKVX NSCLC and with MCF7 breast was above 100 µM each time. Also, the TGI in the experiment with HCT-15 colon and in the experiment with UACC-257 melanoma was above 100 µM in each case.
For `O=C(CCCNC(=O)OCc1ccccc1)OCc1ccc2c(c1)C(=O)c1ccccc1C2=O`, the TGI in the experiment with SNB-19 CNS, with MALME-3M melanoma, in the experiment with SK-MEL-2 melanoma, in the experiment on A498 renal, in the experiment on EKVX NSCLC and in the experiment on HCC-2998 colon was above 100 µM throughout. For the same molecule, the TGI in the experiment on HCT-15 colon and in the experiment with UACC-257 melanoma was above 100 µM in each case.
With `Cc1[nH]c(=O)nc(CC(O)(c2ccccc2)c2ccccc2)c1-c1ccccc1`, the TGI with SNB-19 CNS, with MALME-3M melanoma, in the experiment with SK-MEL-2 melanoma, in the experiment with A498 renal, with EKVX NSCLC and in the experiment with HCC-2998 colon was above 100 µM throughout. Moreover, the TGI with HCT-15 colon and in the experiment with UACC-257 melanoma was above 100 µM in each case.
On to `O=C1OC(c2ccccc2)=N/C1=C\c1c(O)cc(O)cc1O`, for which the TGI in the experiment on SNB-19 CNS, in the experiment on MALME-3M melanoma, in the experiment with SK-MEL-2 melanoma, in the experiment on A498 renal, in the experiment with EKVX NSCLC and in the experiment on HCT-15 colon was above 100 µM each time. Moreover, the TGI in the experiment with UACC-257 melanoma was above 100 µM.
Turning to `COc1ccc(CCNCc2cccc(OC)c2OC)cc1OC`, the TGI in the experiment on SNB-19 CNS, in the experiment on MALME-3M melanoma, in the experiment with SK-MEL-2 melanoma, in the experiment with EKVX NSCLC, in the experiment on HCC-2998 colon and in the experiment on HCT-15 colon was above 100 µM throughout. The molecule also showed a TGI with UACC-257 melanoma above 100 µM.
Turning to `O=C(/C=C/c1c(O)ccc2ccccc12)c1cccc2ccccc12`, the TGI in the experiment with SNB-19 CNS, in the experiment on MALME-3M melanoma, in the experiment on SK-MEL-2 melanoma, with A498 renal, with EKVX NSCLC and with HCC-2998 colon was above 100 µM in each case. For the same molecule, the TGI in the experiment on HCT-15 colon and in the experiment with UACC-257 melanoma was above 100 µM in each case.
Turning to `OCC(O)COc1c(Cl)ccc(Cl)c1Cl` (centres undefined), the TGI with SNB-19 CNS, in the experiment with MALME-3M melanoma, with SK-MEL-2 melanoma, in the experiment on A498 renal, with EKVX NSCLC and with HCC-2998 colon was above 100 µM each time. In addition, the TGI in the experiment on HCT-15 colon and in the experiment on UACC-257 melanoma was above 100 µM throughout.
As to `O=C(CCc1ccccc1)On1nnc2ccccc2c1=O`, the TGI in the experiment on SNB-19 CNS, in the experiment with MALME-3M melanoma, with SK-MEL-2 melanoma, in the experiment on A498 renal, in the experiment with EKVX NSCLC and in the experiment with HCC-2998 colon was above 100 µM throughout. Also, the TGI in the experiment on HCT-15 colon and in the experiment with UACC-257 melanoma was above 100 µM in each case.
As to `COc1ccc(/C(Cl)=C(\C=O)c2ccc(Br)cc2)cc1OC`, the TGI in the experiment on SNB-19 CNS was above 100 µM; in the experiment with MALME-3M melanoma, above 100 µM; in the experiment with SK-MEL-2 melanoma, 74.4 µM; in the experiment with A498 renal, above 100 µM; with EKVX NSCLC it was above 100 µM; in the experiment with HCC-2998 colon, above 100 µM. Also, the TGI in the experiment with HCT-15 colon and in the experiment on UACC-257 melanoma was above 100 µM in each case.
Regarding `C[C@H]1COC2(c3ccccc3)CCC(=O)N12` (some centres undefined), the TGI in the experiment on SNB-19 CNS, in the experiment on MALME-3M melanoma, in the experiment with SK-MEL-2 melanoma, in the experiment with A498 renal, with EKVX NSCLC and in the experiment on HCT-15 colon was above 100 µM each time. Moreover, in the experiment with UACC-257 melanoma, the TGI is above 100 µM.
Consider `N#CCC(=O)N/N=C1/C(=O)NC(=O)C(=O)C1c1nc2ccccc2s1` (centres undefined), for which the TGI in the experiment with SNB-19 CNS, in the experiment with MALME-3M melanoma, in the experiment on SK-MEL-2 melanoma, in the experiment on A498 renal, in the experiment with EKVX NSCLC and in the experiment with HCC-2998 colon was above 100 µM each time. Also, the TGI with HCT-15 colon and in the experiment with UACC-257 melanoma was above 100 µM in each case.
As to `COC(=O)C1=C(c2cc(OC)c(OC)c(OC)c2)OC(c2cc(OC)c(OC)c(OC)c2)C1COC(C)=O` (centres undefined), the TGI in the experiment with SNB-19 CNS, with MALME-3M melanoma, in the experiment with A498 renal, in the experiment on EKVX NSCLC, in the experiment with HCC-2998 colon and in the experiment on HCT-15 colon was above 100 µM in each case. In the experiment on UACC-257 melanoma, this molecule registered a TGI above 100 µM.
With `Cc1ccc(S(=O)(=O)NC(CCC(=O)Nc2ccccc2)C(=O)Nc2ccccc2)cc1` (centres undefined), the GI50 (usually the concentration at which growth is held to half of that of the control) with MALME-3M melanoma is 745 nM; in the experiment with SK-MEL-2 melanoma it was 427 nM; in the experiment with A498 renal, 142 nM; in the experiment with EKVX NSCLC, 0.401 µM; in the experiment on UACC-257 melanoma, 0.464 µM. In addition, the total growth inhibition concentration (TGI) with MALME-3M melanoma turned out to be 2.51 µM; in the experiment on SK-MEL-2 melanoma it was 1.47 µM; in the experiment on A498 renal, 0.897 µM; in the experiment on EKVX NSCLC, 2.3 µM; in the experiment on UACC-257 melanoma, 2.36 µM.
With `CCOC(=O)c1cc2cc(NC(=O)c3cc4cc([N+](=O)[O-])ccc4n3C)ccc2n1C`, the GI50 is 22.7 µM in the experiment on SNB-19 CNS; above 100000 nM in the experiment on SK-MEL-2 melanoma; 20 µM in the experiment on EKVX NSCLC; 44.2 µM in the experiment on MCF7 breast; 15.4 µM in the experiment with HCT-15 colon; 46.6 µM in the experiment on UACC-257 melanoma. In addition, the concentration for total growth inhibition (TGI) in the experiment on SNB-19 CNS is above 100 µM; in the experiment on SK-MEL-2 melanoma it was above 100 µM; with EKVX NSCLC it was above 100 µM; with MCF7 breast, above 100 µM; with HCT-15 colon, 51.6 µM; in the experiment on UACC-257 melanoma it was above 100 µM.
